Key:
[1] = system: metatarsals of mouse fetus; experiment: Organ culture of mouse fetus metatarsals, calcein staining; type: cell-based; settings: 0.3 μM, 7 days organ culture, versus 0.3% DMSO negative control
Experimental: Eagle's minimum essential mediums (MEM, Life Technologies Japan Corporation (Invitrogen)) was used to prepare the organ culture medium by adding 1% of penicillin/streptomycin (Life Technologies Japan Corporation (GIBCO)), 0.25% of fetal bovine serum (Sigma-Aldrich Co. LLC.), 50 μg/ml of ascorbic acid (Wako Pure Chemical Industries, Ltd.), 1 mM of β-glycerophosphoric acid (Sigma-Aldrich Co. LLC.), and 1 μg/ml of calcein (Sigma-Aldrich Co. LLC.). As a test substance, 0.3 μM of fargesin, or as a control, 0.3% of DMSO (final cone., Wako Pure Chemical Industries, Ltd.) was added to the organ culture medium. Fargesin was used the same solution prepared in Example 1 containing 0.3% DMSO as the final concentration.
On 15 of pregnancy, mouse fetuses were took from pregnant female ICR mice (Japan SLC, Inc.) by Caesarean operation (E15.5) from the 15th days of a pregnant ICR female mouse by Caesarean section. Left and right metatarsals of the fetus were excised to be placed into the organ culture medium. The organ culture was performed under the conditions of 5% CO2 at 37 degree centigrade for 7 days to observe the effect on long axis direction.
The long axis of the bone grows depending on that of epiphyseal cartilage existing between an epiphysis and a shaft. […] Then, calcification was occurred from the occification center (ossification). […]

[2] = system: ovariectomized mouse (type I osteoporosis model animal); experiment: Change of bone mass in type I osteoporosis model animal (ovariectomized mice, dosing 3 months, femur pQCT); type: in vivo; settings: for Bone density Cancellous bone, relative value / Bone density whole bone, relative value / Cortical bone Bone density, relative value / Cortical bone Bone thickness, relative value / Cortical bone adventitia diameter, relative value / Cortical bone lining membrane diameter, relative value / Polar axis bone strength, relative value (Table 3): Sham group = 100; for Polar axis strength (polar coordinates strength): SSI from pQCT; for Bone density Cancellous bone / Bone density whole bone: right femur, pQCT
From the text: Female Slc: ddy mice of 4 weeks old (Japan SLC, Inc.) was operated with ovariectomy to use as a type I osteoporosis model animal. Also, in order to delete the affection by invasion, a group which is operated without ovariectomy (Sham operation) is set (Sham group). These were the […] model animals.
Animal bedding were changed twice a week and always to use all fresh one, CRF-1 (Oriental Yeast Co., Ltd.) is fed as feed and deionized water as drinking water were freely given. Their body weights were weighed twice a week by the end of the experiment.
Fargesin was dissolved in 30 mL of a solution (it is referred to as “TD solution”, hereinbelow) containing 4% dimethyl sulfoxide (it is referred to as “DMSO”, hereinbelow) and 4% TWEEN 80 (both were purchased from Wako Pure Chemical Industries, Ltd.) so as that a dosage amount of fargesin becomes 20 mg/kg body wt/day, or […].
After the surgical operation, the mice were adapted to the circumstances for 5 days, and then they were divided to the Sham group, the negative control, the positive control group, and the test substance administration group (6 mice per group). The ovariectomized mice were used for the negative control group, the positive control group, and the test substance administration group.
Fargesin solution was daily administrated to the ovariectomized mice in the test group at the dosage of 20 mg/kg body wt/day (it is referred to as “F20 group”, hereinbelow) or 100 mg/kg body wt/day (it is referred to as “F100 group”, hereinbelow) for 3 month p.o.
In order to study effects of fargesin on the bone, the femur, the largest long bone, was used.
The mice in each group were killed by the cervical dislocation under diethyl ether anesthesia. Their right femurs were excised with muscles, and the muscles were removed from the femur after the excision. Lengths of the excised bones from the mice in the groups were measured, and they were dipped in 70% ethanol to be fixed.
In FIG. 3, the bone was shown schematically. The long bone (tubular bone) was composed of two thick and rounded ends (epiphysis), and thin and long part between them (a shaft). The bone extends to longitudinal direction, depending on the growth of a plate-shape epiphyseal cartilage (a growth plate) between the epiphysis and the shaft. The region of 1 mm proximal side from the A position for a measurement was set to that from 1 mm proximal region (epiphysis) from the distal growth plate as decided as the measurement region.
The bone density was measured by using the peripheral quantitative computed tomography (pQCT, XCT Research SA+, Stratec Medizintechnik GmbH, Merk Ltd) (FIG. 3B). The measurement was performed under the conditions: a diameter of 90 mm, a voxel size of 0.12 mm, a CT speed of 10 mm/sec, and a block number of 1. Bone mineral content (mg/mm), bone density (mg/cm^3), and cross section of the bone (mm^2) of the entire of tomographic images (whole bone area) were calculated.
Next, the area of the cancellous bone was extracted (peel mode 20), and then the bone mineral amount (mg/mm), the section of the bone (mm^2), and the bone density (mg/cm^3) were calculated. Further to the cortical bone, the bone mineral amount (mg/mm), the bone density (mg/cm^3), the section of the bone (mm^2), a bone thickness (mm), the periosteum perimeter of the cortical bone (mm), and the endosteum perimeter of the cortical bone (mm) were calculated.
Based on the bone diameter and the bone density measured by the pQCT, SSI was calculated. SSI is composed of Polar SSI (torsion strength in polar coordination), X-axis SSI (strength in X axis, three-point bending strength), and Y-axis SSI (Y axis strength, three-point lateral bending strength), and it is expressed by the following general equation.
Wherein, Z is the coefficient of the cross section (mm^3), CBD is the bone density of the cortical bone (mg/cm^3), and ND is the physiological bone density (1200 mg/cm^3). The coefficient Z is shown as the following equation.

[3] = F20 group: 20 mg/kg body wt/day p.o.
[4] = F100 group: 100 mg/kg body wt/day p.o.
[5] = OVX mice, F20 group: 20 mg/kg body wt/day p.o., 3 months
[6] = OVX mice, F100 group: 100 mg/kg body wt/day p.o., 3 months

With `COc1ccc([C@@H]2OC[C@H]3[C@@H]2CO[C@@H]3c2ccc3c(c2)OCO3)cc1OC` [fargesin, Fargesin] the “extension of the metatarsal in long axis direction (calcified area, calcein fluorescence)” value [1] was “extended longer vertically”, the “Bone density Cancellous bone, relative value” [2, 3] was 123.0 and the “Bone density whole bone, relative value” [2, 3] was 100.8. The “Cortical bone Bone density, relative value” [2, 3] was “(97.4)”, the “Cortical bone Bone thickness, relative value” [2, 3] was “(91.1)” and the “Cortical bone adventitia diameter, relative value” [2, 3] was “(105.3)”. For the same molecule, the “Cortical bone lining membrane diameter, relative value” [2, 3] was “(110.8)”, the “Polar axis bone strength, relative value (Table 3)” value [2, 3] was 104.2 and the “Bone density Cancellous bone, relative value” [2, 4] was 131.3. The “Bone density whole bone, relative value” [2, 4] was 102.2, the “Cortical bone Bone density, relative value” [2, 4] was “(95.6)” and the “Cortical bone Bone thickness, relative value” [2, 4] was “(102.5)”. The “Cortical bone adventitia diameter, relative value” [2, 4] was “(104.2)”, the “Cortical bone lining membrane diameter, relative value” [2, 4] was “(104.9)” and the “Polar axis bone strength, relative value (Table 3)” value [2, 4] was 71.6. The “Cortical bone Bone density” value [2, 5] was 859.483 ± 2.479 mg/mL, the “Cortical bone Bone thickness” value [2, 5] was 0.329 ± 0.026 mm and the “Cortical bone adventitia diameter” value [2, 5] was 8.4160 ± 0.116 mm. The “Cortical bone lining membrane diameter” value [2, 5] was 6.347 ± 0.160 mm, the “Polar axis bone strength (Table 3)” value [2, 5] was 2.005 ± 0.154 mm^3 and the “bone mineral mass, cancellous bone” value [2, 5] was 0.855±0.067 mg/mm. For the same molecule, the “bone mineral mass, cortical bone” value [2, 5] was 2.087±0.160 mg/mm, the “bone mineral mass, whole bone” value [2, 5] was 3.638±0.164 mg/mm and the “cross section area of the bone, cortical bone” value [2, 5] was 2.427±0.185 mm^2. The “cross section area of the bone, whole bone” value [2, 5] was 5.643±0.152 mm^2, the “Polar axis strength (polar coordinates strength)” value [2, 5] was 1.615±0.090 mm^3 and the “Bone density Cancellous bone” value [2, 5] was 431.283 ± 30.506 mg/mL. For the same molecule, the “Bone density whole bone” value [2, 5] was 644.367 ± 20.387 mg/mL, the “Cortical bone Bone density” value [2, 6] was 843.55 ± 8.714 mg/mL and the “Cortical bone Bone thickness” value [2, 6] was 0.370 ± 0.051 mm. For the same molecule, the “Cortical bone adventitia diameter” value [2, 6] was 8.3300 ± 0.278 mm, the “Cortical bone lining membrane diameter” value [2, 6] was 6.010 ± 0.313 mm and the “Polar axis bone strength (Table 3)” value [2, 6] was 1.265 ± 0.147 mm^3. The “bone cross section, whole bone” value [2, 6] was 5.550±0.351 mm^2, the “bone mineral mass, cancellous bone” value [2, 6] was 0.920±0.102 mg/mm and the “bone mineral mass, cortical bone” value [2, 6] was 2.240±0.320 mg/mm. The “bone mineral mass, whole bone” value [2, 6] was 3.660±0.326 mg/mm, the “cross section area of the bone, cortical bone” value [2, 6] was 2.640±0.361 mm^2 and the “Polar axis strength (polar coordinates strength)” value [2, 6] was 1.666±0.087 mm^3. For the same molecule, the “Bone density Cancellous bone” value [2, 6] was 460.500 ± 36.222 mg/mL and the “Bone density whole bone” value [2, 6] was 653.300 ± 29.083 mg/mL.

— patent publication US20130253048A1, “Pharmaceutical Composition for Promoting Osteogenesis Containing Axial-equatorial Aryl-oriented Furofuran-type Lignan, and Pharmaceutical Preparation, Functional Food Product, and Health Food Product Comprising Composition” (ERINA CO., INC., priority 2010, published 2013)
